Assay results taken from US4388236A, “Enkephalin-like compounds in bovine adrenal medulla” (Hoffmann-La Roche Inc., priority 1982, dated 1983).
Values joined by “and” are separate entries in the source; they are usually repeats but may differ in a detail not shown here. Equal entries are not always repeated. “Also recorded” adds a separate entry of the source. No end group written: not given here.

Assays:
[1] = tested on: mice; assay: Tail flick response (analgesic assay); type: in vivo; set-up: tail flick response, Prior Injection Time (Control) Predose / tail flick response, Post Injection Time 2 min.: unit not given here; settings: for tail flick response, Prior Injection Time (Control) Predose / tail flick response, Post Injection Time 5 / tail flick response, Post Injection Time 10 / Response (analgesic activity) / tail flick response, Post Injection Time 2 min.: individual mice; for tail flick response, Prior Injection Time (Control) Predose: before intracerebral ventrical injection; for tail flick response, Post Injection Time 5 / tail flick response, Post Injection Time 10 / No. of Mice Responsive/Total No. of Mice / Response (analgesic activity) / tail flick response, Post Injection Time 2 min.: intracerebral ventrical, Beta-endorphin 4.5nm, Arg6-Phe7 met-enkephalin 6 n moles; for tail flick response, Post Injection Time 5 / tail flick response, Post Injection Time 10 / No. of Mice Responsive/Total No. of Mice / Response (analgesic activity): Acetylcholine 20ng; for tail flick response, Post Injection Time 10 / Response (analgesic activity) / tail flick response, Post Injection Time 2 min.: Met Enk 120nm
Experimental: For the analgesic assay, mice were injected (intracerebral ventrical) with 6 n moles of the synthetic peptide (Tyr-Gly-Gly-Phe-Met-Arg-Phe). The tail flick response assay was carried out according to the method of Dayton, et al., Proc. Soc. […] The tail flick response (analgesic activity) was measured prior to injection and at 2,5 and 10 minutes post injection time. Results are tabulated in Table V. Further results are given in Inturris, et. al., Proc. Nat'l. Acad. Sci. (U.S.A.), 77,5512 (1980).

[2] = molecular target: T1, opiate receptor (Mus musculus, UniProt P32300); assay: Radioreceptor assay (opiate receptor binding activity)
T1 construct: endogenous in cells; host or cells: neuroblastoma x glioma hybrid cells (NG108-15)
T1 sequence (P32300 whole entry): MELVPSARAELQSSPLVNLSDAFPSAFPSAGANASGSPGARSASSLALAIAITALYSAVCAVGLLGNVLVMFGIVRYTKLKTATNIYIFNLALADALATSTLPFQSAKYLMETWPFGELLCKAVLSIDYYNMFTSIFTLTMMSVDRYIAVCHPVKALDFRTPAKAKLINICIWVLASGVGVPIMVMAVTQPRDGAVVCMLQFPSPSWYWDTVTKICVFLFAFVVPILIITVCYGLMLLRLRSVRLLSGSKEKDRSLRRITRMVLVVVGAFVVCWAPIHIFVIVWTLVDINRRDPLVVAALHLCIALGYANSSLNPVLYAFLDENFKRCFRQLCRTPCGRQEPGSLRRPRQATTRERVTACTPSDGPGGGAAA
Source text: Extracts of bovine adrenal medulla (BAM) or chromaffin granules (CG) therefrom were obtained by conventional methods known in the art and were purified using gel filtration, high pressure liquid chromatography (HPLC) and fluorometric detection by method of Bohlen, P. et al., Anal. Biochem. 67, 437 (1975).
Opioid activities for peaks I-V were quantitatively determined by conventional means in radioreceptor assays before (Native) and after trypsin digestion of each of the peaks from BAM and CG sources.

[3] = tested on: N-terminal directed Met-enkephalin antibody; assay: Radioimmunoassay with N-terminal directed Met-enkephalin antibody; type: binding; settings: fractions from RP-18 of peak V; 1.3 g wet weight of chromaffin granules isolated from 30 g of adrenal medulla
Experimental: (§1) Radioimmunoassays were performed using a C-terminal directed Leu-enkephalinantibody and a N-terminal directed Met-enkephalin antibody. The characteristics of these antibodies and methods of use have been described previously and were followed in Lewis, R. V., et al., Biochem. Biophys. Res. Commun. 89, 822 (1979).

[4] = tested on: C-terminal directed Leu-enkephalin antibody; assay: Radioimmunoassay with C-terminal directed Leu-enkephalin antibody; type: binding; settings: fractions from RP-18 of peak V; 1.3 g wet weight of chromaffin granules isolated from 30 g of adrenal medulla
Experimental: as §1

[5] = tested on: mice; settings: intracerebra-ventricular or intravenous administration to mice; cited from earlier work
[6] = tested on: rats; settings: intracerebra-ventricular or intravenous administration to rats; cited from earlier work
[7] = tested on: mice; assay: Tail flick response (analgesic assay); type: in vivo; set-up: tail flick response, Prior Injection Time (Control) Predose / tail flick response, Post Injection Time 2 min.: unit not given here; settings: individual mice

| Compound | tail flick response, Prior Injection Time (Control) Predose [1] | tail flick response, Post Injection Time 5 [1] | tail flick response, Post Injection Time 10 [1] | No. of Mice Responsive/Total No. of Mice [1] | opiate receptor binding activity in radioreceptor assay (in words) [2] | Response (analgesic activity) [1] | also measured |
| --- | --- | --- | --- | --- | --- | --- | --- |
| CC(=O)OCC[N+](C)(C)C [Acetylcholine] | 4.6 and 5.0 and 4.5 | 6.1 and > 10 | > 10 | 3/3 | – | – | – |
| CSCC[C@H](NC(=O)[C@H](Cc1ccccc1)NC(=O)CNC(=O)CNC(=O)[C@@H](N)Cc1ccc(O)cc1)C(=O)O [F-T-2] | – | – | – | – | most active tryptic peptide | – | – |
| CC(C)C[C@H](NC(=O)[C@H](Cc1ccccc1)NC(=O)CNC(=O)CNC(=O)[C@@H](N)Cc1ccc(O)cc1)C(=O)O [Leu-Ek, leucine enkephalin] | – | – | – | – | – | – | N-Terminal radioimmunoassay [3]: 0.4 nmoles/fraction; C-Terminal radioimmunoassay [4]: 1.0 nmoles/fraction; analgesia [5]: weak and short term analgesia; analgesia [6]: weak and short term analgesia |
| CSCC[C@H](NC(=O)[C@H](Cc1ccccc1)NC(=O)CNC(=O)CNC(=O)[C@@H](N)Cc1ccc(O)cc1)C(=O)O [Met-Ek, methionine enkephalin] | – | – | – | – | – | Neg. | Radioreceptor ([2]; fractions from RP-18 of peak V, 1.3 g wet weight of chromaffin granules isolated from 30 g of adrenal medulla): 1.0 nmoles/fraction; N-Terminal radioimmunoassay [3]: 1.0 nmoles/fraction; C-Terminal radioimmunoassay [4]: 0.03 nmoles/fraction; tail flick response, Prior Injection Time (Control) Predose ([7]; before intracerebral ventrical injection, listed as Met Enk): 4.1 and 5.4 and 4.6; tail flick response, Post Injection Time 10 ([7]; intracerebral ventrical, Met Enk 120nm, Acetylcholine 20ng, Beta-endorphin 4.5nm, Arg6-Phe7 met-enkephalin 6 n moles): 6.3 and 5.9 and 5.0; tail flick response, Post Injection Time 2 min. ([7]; intracerebral ventrical, Met Enk 120nm, Beta-endorphin 4.5nm, Arg6-Phe7 met-enkephalin 6 n moles): 4.0 and 4.7; analgesia [5]: weak and short term analgesia; analgesia [6]: weak and short term analgesia |
| Beta-endorphin | 4.0 and 4.7 and 4.2 and 5.4 and 4.4 and 4.3 | > 10 and > 9 and 3.4 and 3.1 | 8 and > 10 and 3.8 | 5/7 | – | Pos. and Neg. | tail flick response, Post Injection Time 2 min. [1]: 5.9 and 3.0 and 4.4 and 3.8; tail flick response, Post Injection Time 20 ([7]; intracerebral ventrical, Beta-endorphin 4.5nm): > 10 |
| YGGFMK [F-T-1] | – | – | – | – | opiate receptor binding activity | – | – |
| YGGFMK [Met-enkephalin-(Lys^6)] | – | – | – | – | – | – | binding to the receptor relative to Met-enkephalin ([2]; from binding curves): 9% |
| YGGFMR [I-T-1] | – | – | – | – | active in the radioreceptor assay at high concentrations | – | – |
| YGGFMR [Met-enkephalin-(Arg^6)] | – | – | – | – | active in the radioreceptor assay at high concentrations; also recorded: binds very poorly | – | binding activity relative to Leu-enkephalin [2]: less than 3% |
| YGGFMRF [Arg^6 --Phe^7 met-enkephalin, Tyr-Gly-Gly-Phe-Met-Arg-Phe] | 5.7 and 5.2 and 4.6 and 3.6 and 3.7 and 4.0 | 5.4 and 4.2 and 3.8 and 9.0 and 4.0 | 6.3 and 5.8 and > 10 and 5.0 and 4 | 4/8 | – | Neg. and Pos. and neg. | tail flick response, Post Injection Time 2 min. [1]: 4.9 and 4.6 and 4.3 and 4.0 and 3.4 and 4.5 |
